Measurements taken from patent publication US20060099712A1, “Correlation of anti-cancer activity of dyes with redox potentials” (Eastman Kodak Company, priority 2004, published 2006).

Test system: CX-1 Human Colon Carcinoma
Experiment: Clonogenic dye screening assay, CX-1 cells (IC50)
Type: cell-based
Settings: for CX (IC50 in the CX-1 cell line): 3 hrs treatment, colonies after 7-10 days, unit from method b117-118; for CV/CX (selectivity, kill ratio): ratio of IC50 in normal CV-1 line to IC50 in carcinoma CX-1 line
Text: CX-1 is a cancerous human colon adenocarcinoma cell line. CV-1 is a non-cancerous control, which is a kidney epithelial cell line from an African green monkey. IC50 is the dye concentration at which 50% of the cells are killed. Selectivity or kill ratio is defined as the ratio of […] at IC50 for both CX-1 and CV-1. A ratio with a high number indicates a high selectivity.
The dyes were screened in two cell lines. CX-1 is a human colon adenocarcinoma cell line. CV-1 is a kidney epithelial cell line from an African green monkey. CV-1 was used as a reference because no normal human epithelial cell line is available for clonogenic assay.
In the initial screen, dyes were examined at six different concentrations to generate a dose response curve. An IC50 value, the concentration at which 50% of the cells are killed, was then calculated. Initially, a dye concentration of 1.0 μg/mL was the highest examined for the CX-1 cell line and 0.005 μg/mL was the lower limit. The corresponding limits on the CV-1 cell line were […].
The screening procedure used a response curve that was determined from eight dye concentrations. The upper and lower limits of CX-1 were 0.32 and 0.0015 μg/mL, respectively, and the corresponding revised limits on CV-1 were 3.2 and 0.025 μg/mL. The screening results were reported by assigning an IC50 value to each dye for the CV-1 and CX-1 cell lines. These values will be referred to herein simply as CV and CX. The most desirable result would be to have a dye that was highly toxic to carcinoma cells but nontoxic to ‘normal’ cells. One measure of this type of selectivity is the ratio of the IC50's in the normal cell line to that in the carcinoma line, CV/CX.
Compounds are screened via an in vitro assay. CV-1 and CX-1 cells are seeded into separate assay plates. The plates are treated with varying concentrations of test compounds, rinsed, and colonies allowed to grow. IC50's are determined and drugs evaluated based on their selectivity and toxicity. Assay Steps: • I. Seeding Cells • II. Weighing • III. Preparation of Solution • IV. Treatment • V. Rinsing and Feeding • VI. Fixing • VII. IC50 Determination I. Seeding Cells
The cells should be seeded 16-30 hours before treatment. The media for CV-1 cells is DME+5% calf serum +5% Nuserum. The media for CX-1 cells is RPMI/DME (50/50)+5% calf serum +5% Nuserum.
(c) number of cells based on 2000 CX-1 cells/well and 1000 CV-1 cells/well. NOTE: Always make enough cell suspension for 1 extra plate to allow for volume loss during transfers.
• (a) For CV-1: 256 ug/ml-256 ul of 1 mg/ml stock +744 ul DMSO • (b) For CX-1: 25.6 ug/ml-100 ul of 256 ug/ml+900 ul DMSO IV. Treatment • 1. Each plate is treated with 4 test compounds, one positive control and one negative control. • 2. Serial dilutions of the compounds are made in the following way:
2 multi-well pipetters are used. One is set for 10 ul and one for 200 ul. Each is equipped with 6 tips spaced such that they fit into the 6 rows of a plate. 390 ul of media is added to the first column of each plate. 10 ul each of 4 compound solutions, a positive and a negative control are taken up and put into the first column of wells. The 200 ul pipetter is then placed in the same wells, pipetted up and down 3 times and two 200 ul aliquots are moved to the next column of wells. This column is pipetted up and down 3 times and 400 ul moved to column 3, etc. The final 400 ul excess from column 8 is discarded.
• 3. Label the plates along the front, each row −1 compound. • 4. Incubate the plates at 37° C. for 3 hrs. V. Rinsing • 1. Prepare several bottles of CX-1 and CV-1 media. • 2. Check for precipitate in first column of each plate and note. • 3. Starting with the plates treated first, rinse several plates at a time by aspirating the treatments and refilling each well with 0.5-1.0 ml of the rinse media. Aspirate and refill 2 more times for a total of 3 rinses. • 4.

[1] = listed as drawing 41|Et|5-Cl|5-Cl

SMILES	CX (IC50 in the CX-1 cell line)	CX (IC50 in the CX-1 cell line) [1]	CV/CX (selectivity, kill ratio)	CV/CX (selectivity, kill ratio) [1]
CCC(=Cc1sc2ccccc2[n+]1C)C=C1Sc2ccccc2N1C [drawing 38|M|H|Et|H]			14.0	
CN1C(=CC(=Cc2sc3ccccc3[n+]2C)Sc2ccccc2)Sc2ccccc21 [drawing 38|M|H|SPh|H]	0.065 µg/mL		7.69	
CCN1/C(=C/C=C(\OC(C)=O)c2sc3ccccc3[n+]2CC)Oc2ccccc21 [drawing 39|E|OAc|H]			10.0	
CCN1/C(=C/C=C(\O)c2sc3ccccc3[n+]2CC)Oc2ccccc21 [drawing 39|E|OH|H]			10.0	
CC[n+]1c(/C(=C/C=C2\Oc3ccccc3N2C)Sc2ccccc2)sc2ccccc21 [drawing 39|M/E|SPh|H]			3.0	
CCC(/C=C1\Oc2ccc3ccccc3c2N1CC)=C\c1sc2ccc3ccccc3c2[n+]1CC [drawing 40|E|Et]	0.06 µg/mL		5.0	
CCSC(=C\c1sc2ccc3ccccc3c2[n+]1CC)/C=C1\Oc2ccc3ccccc3c2N1CC [drawing 40|E|SEt]	0.04 µg/mL		1.25	
CCC(/C=C1\Oc2ccc3ccccc3c2N1C)=C\c1sc2ccc3ccccc3c2[n+]1C [drawing 40|M|Et]	0.08 µg/mL		5.0	
CN1/C(=C/C(=C/c2sc3ccc4ccccc4c3[n+]2C)c2ccccc2)Oc2ccc3ccccc3c21 [drawing 40|M|Ph]	0.03 µg/mL		10.0	
CCN1/C(=C/C=C/c2sc3cc(O)c(O)cc3[n+]2CC)Sc2ccccc21 [drawing 41|Et|5,5-OH|H]			10.0	
CCN1/C(=C/C=C/c2sc3ccc(OC)cc3[n+]2CC)Sc2ccc(OC)cc21 [drawing 41|Et|5-MeO|5-MeO]			40.0	
CCN1C(=CC=Cc2sc3ccc(OC)cc3[n+]2CC)Sc2ccccc21 [drawing 41|Et|5-MeO|H]			40.0	
CCN1/C(=C/C=C/c2sc3c(OC)cccc3[n+]2CC)Sc2c(OC)cccc21 [drawing 41|Et|7-MeO|7-MeO]			5.0	
CN1/C(=C/C=C/c2sc3c(F)c(F)c(F)c(F)c3[n+]2C)Sc2c(F)c(F)c(F)c(F)c21 [drawing 41|Me|4,5,6,7-F|4,5,6,7-F]	>0.32 µg/mL		10.0	
CCN1/C(=C\C=C\c2[se]c3ccccc3[n+]2CC)Sc2cc(O)c(O)cc21 [drawing 42|H|5,6-OH]	0.300 µg/mL			

Further lines, with some results ahead:

CX (IC50 in the CX-1 cell line)	CX (IC50 in the CX-1 cell line) [1]	SMILES	CV/CX (selectivity, kill ratio)	CV/CX (selectivity, kill ratio) [1]
0.07 µg/mL		CCN1/C(=C/C(=C/c2sc3ccccc3[n+]2CC)Sc2ccc(C)cc2)Sc2ccccc21 [drawing 38|E|H|SPhMe|H]	3.57	
0.04 µg/mL		CCSC(=Cc1sc2ccccc2[n+]1CC)C=C1Sc2ccccc2N1CC [drawing 38|E|H|Set|H]	15.0	
>0.32 µg/mL		CN1/C(=C/C=C(\C=O)c2sc3ccccc3[n+]2C)Sc2ccccc21 [drawing 38|M|CHO|H|H]	10.0	
0.02 µg/mL		CC(=Cc1sc2ccccc2[n+]1C)C=C1Sc2ccccc2N1C [drawing 38|M|H|Me|H]	5.0	
0.015 µg/mL		CSC(=Cc1sc2ccccc2[n+]1C)C=C1Sc2ccccc2N1C [drawing 38|M|H|SMe|H]	26.6	
0.03 µg/mL		CCN1C(=CC(=Cc2sc3ccccc3[n+]2CC)CSC(C)=O)Oc2ccccc21 [drawing 39|E|H|CSC(═O)C]	33.3	
0.03 µg/mL		CCC(=Cc1sc2ccccc2[n+]1CC)C=C1Oc2ccccc2N1CC [drawing 39|E|H|Et]	33.3	
0.05 µg/mL		CCN1C(=CC(C)=Cc2sc3ccccc3[n+]2CC)Oc2ccccc21 [drawing 39|E|H|Me]	20.0	
0.1 µg/mL		CC[n+]1c(/C=C(/C=C2\Oc3ccccc3N2C)Sc2ccccc2)sc2ccccc21 [drawing 39|M/E|H|SPh]	3.0	
0.3 µg/mL		CCN1/C(=C\C=C\c2sc3ccc4ccccc4c3[n+]2CC)Oc2ccc3ccccc3c21 [drawing 40|E|H]	6.7	
0.04 µg/mL		CCN1/C(=C/C(=C/c2sc3ccc4ccccc4c3[n+]2CC)SC)Oc2ccc3ccccc3c21 [drawing 40|E|SMe]	5.0	
0.04 µg/mL	0.30 µg/mL	CCN1C(=CC=Cc2sc3ccc(Cl)cc3[n+]2CC)Sc2ccc(Cl)cc21 [drawing 41|ET|5-Cl|5-Cl]	40.0	16.7
0.02 µg/mL		CCN1C(=CC=Cc2sc3cc(OC)c(OC)cc3[n+]2CC)Sc2ccccc21 [drawing 41|Et|5,6-MeO|H]	20.0	
0.04 µg/mL		CCN1C(=CC=Cc2sc3ccc(Br)cc3[n+]2CC)Sc2ccc(Br)cc21 [drawing 41|Et|5-Br|5-Br]	35.0	
0.03 µg/mL		CCN1/C(=C/C=C/c2sc3c(N(C)C)cc(Cl)cc3[n+]2CC)Sc2ccccc21 [drawing 41|Et|5-Cl, 7-N(Me)2|H]	6.7	
0.02 µg/mL		CCN1C(=CC=Cc2sc3ccc(Cl)cc3[n+]2CC)Sc2ccccc21 [drawing 41|Et|5-Cl|H]	40.0	
0.015 µg/mL		CCN1C(=CC=Cc2sc3ccc(OC)cc3[n+]2CC)Sc2ccc(C)cc21 [drawing 41|Et|5-MeO|5-Me]	13.3	
0.08 µg/mL		CCN1/C(=C/C=C/c2sc3ccc(-c4ccccc4)cc3[n+]2CC)Sc2ccc(-c3ccccc3)cc21 [drawing 41|Et|5-Ph|5-Ph,]	1.25	
0.01 µg/mL		CCN1C(=CC=Cc2sc3cc(OC)ccc3[n+]2CC)Sc2cc(OC)ccc21 [drawing 41|Et|6-MeO|6-MeO]	9.0	
0.16 µg/mL		CCN1/C(=C/C=C/c2sc3cc(C#N)ccc3[n+]2C)Sc2ccccc21 [drawing 41|M/E|6-CN|H]	20.0	
0.006 µg/mL		CCN1C2=C(CCc3ccccc32)S/C1=C\C=C\c1sc2c([n+]1CC)-c1ccccc1CC2 [drawing 43|E|4,5-H|4,5-H]	8.33	
0.3 µg/mL		CCN1/C(=C/C=C/c2sc3ccc4ccccc4c3[n+]2CC)Sc2ccc3ccccc3c21 [drawing 43|E|H|H]	6.7	
0.08 µg/mL		CC1CC2=C(c3ccccc31)N(C)/C(=C/C=C/c1sc3c([n+]1C)-c1ccccc1C(C)C3)S2 (stereo not drawn) [drawing 43|M|4,5-H, 5-ME|4,5-H, 5-ME]	1.25	
